Measurements: patent publication US9725465B2, “Biaryl acetamide compounds and methods of use thereof” (Ambit Biosciences Corporation, priority 2013, dated 2017)
pIC50, pKd: −log10 of the molar value.

Experiments:
FLT3-ITD = FLT3-ITD (Homo sapiens (Human), UniProt P36888, INS600HVDFREYEYD); test: pFLT3 MSD assay, Ba/F3 FLT3-ITD; assay type: cell-based; settings: Ba/F3 FLT3-ITD cells, 2 hours, read-out: BaF3-FLT3-ITD pFlt3 IC50
KIT kinase = KIT kinase (Homo sapiens (Human), UniProt P10721); test: Competition binding assay (Kd), KIT; settings: competition binding assay
Method in brief: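 Kinase, as T7 phage fusion or HEK-293-expressed DNA-tagged protein, competed off immobilised ligand beads by test compound (eleven-point threefold dilutions, from 100× DMSO stocks). Eluted kinase quantified by qPCR to derive Kd; DMSO used as control.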

FLT3 kinase = FLT3 kinase (Homo sapiens (Human), UniProt P36888); test: Competition binding assay (Kd), FLT3; settings: competition binding assay
Sequence of FLT3 kinase (P36888 27-993): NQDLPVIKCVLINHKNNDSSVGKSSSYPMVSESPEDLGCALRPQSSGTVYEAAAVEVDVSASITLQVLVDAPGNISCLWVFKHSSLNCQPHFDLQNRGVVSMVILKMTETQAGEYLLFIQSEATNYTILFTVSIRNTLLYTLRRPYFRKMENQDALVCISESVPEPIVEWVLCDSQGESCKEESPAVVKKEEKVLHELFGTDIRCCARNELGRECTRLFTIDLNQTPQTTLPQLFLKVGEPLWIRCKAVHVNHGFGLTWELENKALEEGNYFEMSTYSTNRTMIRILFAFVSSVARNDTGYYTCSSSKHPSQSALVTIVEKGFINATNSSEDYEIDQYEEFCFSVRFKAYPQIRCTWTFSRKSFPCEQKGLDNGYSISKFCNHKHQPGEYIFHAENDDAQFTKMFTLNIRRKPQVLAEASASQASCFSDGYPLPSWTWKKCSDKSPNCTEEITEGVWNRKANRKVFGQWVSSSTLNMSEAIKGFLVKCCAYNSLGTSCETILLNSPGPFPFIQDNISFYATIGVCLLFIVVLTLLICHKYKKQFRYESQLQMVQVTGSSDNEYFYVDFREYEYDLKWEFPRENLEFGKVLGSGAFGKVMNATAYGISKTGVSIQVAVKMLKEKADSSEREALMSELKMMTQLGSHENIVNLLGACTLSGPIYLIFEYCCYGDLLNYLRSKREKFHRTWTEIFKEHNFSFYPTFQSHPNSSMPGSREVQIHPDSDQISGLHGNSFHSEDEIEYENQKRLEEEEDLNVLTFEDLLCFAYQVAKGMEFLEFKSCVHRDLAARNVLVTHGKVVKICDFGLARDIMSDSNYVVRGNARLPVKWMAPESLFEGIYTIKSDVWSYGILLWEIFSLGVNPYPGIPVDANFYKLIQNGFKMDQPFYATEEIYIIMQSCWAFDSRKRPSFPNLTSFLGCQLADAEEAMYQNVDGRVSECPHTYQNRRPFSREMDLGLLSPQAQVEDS
Procedure: The liganded beads were blocked with excess biotin and washed with blocking buffer (SeaBlock (Pierce), 1% BSA, 0.05% Tween 20, 1 mM DTT) to remove unbound ligand and to reduce non-specific binding. […] Test compounds were prepared as 100× stocks in DMSO and diluted into the aqueous environment. Kds were determined using an eleven point threefold serial dilutions. DMSO or control compounds were was added to control assays lacking a test compound. […] The kinase concentration in the eluates was measured by quantitative PCR.
A selectivity score (S35) is a quantitative measure of selectivity of a compound against a panel of kinases. […] Percent of control (POC) is calculated by subtracting the signal of the control compound (POC=0) from the signal of the test compound and dividing the outcome by the signal of DMSO (POC=100) minus the signal of the control compound.

Sequence of KIT kinase (P10721 26-976): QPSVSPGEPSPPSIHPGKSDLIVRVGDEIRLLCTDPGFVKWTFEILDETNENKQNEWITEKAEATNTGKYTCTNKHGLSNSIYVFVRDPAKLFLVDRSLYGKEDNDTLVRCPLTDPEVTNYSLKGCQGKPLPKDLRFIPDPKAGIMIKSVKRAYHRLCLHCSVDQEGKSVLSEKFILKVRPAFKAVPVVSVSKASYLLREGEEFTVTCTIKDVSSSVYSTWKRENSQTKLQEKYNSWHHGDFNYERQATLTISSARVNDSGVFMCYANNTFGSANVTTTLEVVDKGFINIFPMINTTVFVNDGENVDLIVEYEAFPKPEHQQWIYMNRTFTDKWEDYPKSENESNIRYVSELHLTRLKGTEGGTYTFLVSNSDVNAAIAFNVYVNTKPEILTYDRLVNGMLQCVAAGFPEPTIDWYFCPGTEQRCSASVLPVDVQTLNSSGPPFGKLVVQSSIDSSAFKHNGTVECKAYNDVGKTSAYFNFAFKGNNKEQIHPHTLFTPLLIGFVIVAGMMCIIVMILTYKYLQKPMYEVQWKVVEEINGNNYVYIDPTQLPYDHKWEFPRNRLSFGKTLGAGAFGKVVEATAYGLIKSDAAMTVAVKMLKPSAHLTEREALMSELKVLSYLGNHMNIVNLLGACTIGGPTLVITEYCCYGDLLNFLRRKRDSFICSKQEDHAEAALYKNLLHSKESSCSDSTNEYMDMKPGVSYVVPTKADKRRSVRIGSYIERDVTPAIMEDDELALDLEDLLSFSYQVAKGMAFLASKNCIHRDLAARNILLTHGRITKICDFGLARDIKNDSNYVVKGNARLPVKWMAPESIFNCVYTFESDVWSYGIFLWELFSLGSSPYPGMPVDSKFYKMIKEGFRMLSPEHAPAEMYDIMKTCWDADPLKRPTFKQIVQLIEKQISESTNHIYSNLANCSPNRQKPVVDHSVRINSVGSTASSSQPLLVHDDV
Sequence of FLT3-ITD (P36888 other isoform, or with tags, fused parts or gaps limits assumed, stated change not applied): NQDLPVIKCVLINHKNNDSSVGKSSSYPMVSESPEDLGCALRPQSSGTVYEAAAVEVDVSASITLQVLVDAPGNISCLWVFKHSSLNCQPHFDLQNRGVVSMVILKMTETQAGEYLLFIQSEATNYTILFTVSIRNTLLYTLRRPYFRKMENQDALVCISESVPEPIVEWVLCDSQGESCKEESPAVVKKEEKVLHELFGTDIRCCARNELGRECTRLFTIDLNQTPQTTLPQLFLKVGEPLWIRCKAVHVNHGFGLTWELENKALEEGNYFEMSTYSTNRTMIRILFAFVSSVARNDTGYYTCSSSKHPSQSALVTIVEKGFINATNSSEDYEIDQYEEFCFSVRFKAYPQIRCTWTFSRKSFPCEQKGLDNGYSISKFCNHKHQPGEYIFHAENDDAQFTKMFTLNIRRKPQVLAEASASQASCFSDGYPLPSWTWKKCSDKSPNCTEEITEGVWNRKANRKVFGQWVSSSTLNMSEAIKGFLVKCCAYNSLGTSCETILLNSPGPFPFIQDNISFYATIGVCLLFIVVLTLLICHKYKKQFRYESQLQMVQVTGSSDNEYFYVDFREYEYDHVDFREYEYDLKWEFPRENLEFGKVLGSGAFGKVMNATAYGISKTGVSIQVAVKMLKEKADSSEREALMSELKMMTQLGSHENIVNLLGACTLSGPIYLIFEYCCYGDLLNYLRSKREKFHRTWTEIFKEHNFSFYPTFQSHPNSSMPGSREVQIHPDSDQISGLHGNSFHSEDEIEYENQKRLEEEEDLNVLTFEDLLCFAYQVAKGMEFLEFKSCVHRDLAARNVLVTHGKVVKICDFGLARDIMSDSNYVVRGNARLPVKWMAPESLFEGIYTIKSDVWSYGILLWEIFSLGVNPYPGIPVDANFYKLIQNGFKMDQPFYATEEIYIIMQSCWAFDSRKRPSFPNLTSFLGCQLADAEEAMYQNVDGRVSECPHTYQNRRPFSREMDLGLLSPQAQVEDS

| Compound | pIC50 (FLT3-ITD) | pKd (KIT kinase) | pKd (FLT3 kinase) |
| --- | --- | --- | --- |
| COc1ccc2cc(-c3ccc(CC(=O)Nc4cc(C5(C(F)(F)F)CC5)on4)cc3)cnc2c1 [Example 2, 2-(4-(7-methoxyquinolin-3-yl)phenyl)-N-(5-(1-(trifluoromethyl)cyclopropyl)isoxazol-3-yl)acetamide] | > 8.00 | > 8.30 | > 8.30 |
| O=C(Cc1ccc(-c2cnc3[nH]ccc3n2)cc1)Nc1cc(C2(C(F)(F)F)CC2)on1 [Example 3, 2-(4-(5H-pyrrolo[2,3-b]pyrazin-2-yl)phenyl)-N-(5-(1-(trifluoromethyl)cyclopropyl)isoxazol-3-yl)acetamide] | > 8.00 | > 8.30 | > 8.30 |
| COc1cc2ncc(-c3ccc(CC(=O)Nc4cc(C5(C(F)(F)F)CC5)on4)c(F)c3)nc2cc1OC [Example 4, 2-(4-(6,7-dimethoxyquinoxalin-2-yl)-2-fluorophenyl)-N-(5-(1-(trifluoromethyl)cyclopropyl)isoxazol-3-yl)acetamide] | > 8.00 | > 8.30 | > 8.30 |
| COc1cc2cc(-c3ccc(CC(=O)Nc4cc(C5(C(F)(F)F)CC5)on4)cc3)cnc2cc1OC [Example 5, 2-(4-(6,7-dimethoxyquinolin-3-yl)phenyl)-N-(5-(1-(trifluoromethyl)cyclopropyl)isoxazol-3-yl)acetamide] | > 8.00 | > 8.30 | > 8.30 |
| COc1cc2ncc(-c3ccc(CC(=O)Nc4cc(C(C)(C)C)on4)cc3)nc2cc1OC [Example 6, N-(5-(tert-butyl)isoxazol-3-yl)-2-(4-(6,7-dimethoxyquinoxalin-2-yl)phenyl)acetamide] | > 8.00 | > 8.30 | > 8.30 |
| COc1cc2ncc(-c3ccc(CC(=O)Nc4cc(C(C)(C)C(F)(F)F)on4)cc3)nc2cc1OC [Example 8, 2-(4-(6,7-dimethoxyquinoxalin-2-yl)phenyl)-N-(5-(1,1,1-trifluoro-2-methylpropan-2-yl)isoxazol-3-yl)acetamide] | > 8.00 | > 8.30 | > 8.30 |
| O=C(Cc1ccc(-c2cnc3[nH]ncc3c2)cc1)Nc1cc(C2(C(F)(F)F)CC2)on1 [Example 15, 2-(4-(1H-pyrazolo[3,4-b]pyridin-5-yl)phenyl)-N-(5-(1-(trifluoromethyl)cyclopropyl)isoxazol-3-yl)acetamide] | > 8.00 | > 8.30 | – |
| O=C(Cc1ccc(-c2cnc3[nH]ccc3c2)cc1)Nc1cc(C2(C(F)(F)F)CC2)on1 [Example 18, 2-(4-(1H-pyrrolo[2,3-b]pyridin-5-yl)phenyl)-N-(5-(1-(trifluoromethyl)cyclopropyl)isoxazol-3-yl)acetamide] | > 8.00 | > 8.30 | – |
| COc1cc2ncc(-c3ccc(CC(=O)Nc4cc(C(C)(C)C(F)(F)F)on4)c(F)c3)nc2cc1OC [Example 46, 2-(4-(6,7-dimethoxyquinoxalin-2-yl)-2-fluorophenyl)-N-(5-(1,1,1-trifluoro-2-methylpropan-2-yl)isoxazol-3-yl)acetamide] | > 8.00 | 7.70 to 8.30 | > 8.30 |
| CC(O)c1n[nH]c2ncc(-c3ccc(CC(=O)Nc4cc(C(C)(C)C)on4)c(F)c3)cc12 (centres unmarked) [Example 62, N-(5-(tert-butyl)isoxazol-3-yl)-2-(2-fluoro-4-(3-(1-hydroxyethyl)-1H-pyrazolo[3,4-b]pyridin-5-yl)phenyl)acetamide] | > 8.00 | > 8.30 | > 8.30 |
| COc1n[nH]c2ncc(-c3ccc(CC(=O)Nc4cc(C(C)(C)C(F)(F)F)on4)c(F)c3)cc12 [Example 63, 2-(2-fluoro-4-(3-methoxy-1H-pyrazolo[3,4-b]pyridin-5-yl)phenyl)-N-(5-(1,1,1-trifluoro-2-methylpropan-2-yl)isoxazol-3-yl)acetamide] | > 8.00 | > 8.30 | > 8.30 |
| CC(C)(C)c1cc(NC(=O)Cc2ccc(-c3cnc4[nH]c(C(=O)NCCO)cc4c3)cc2)no1 [Example 64, 5-(4-(2-((5-(tert-butyl)isoxazol-3-yl)amino)-2-oxoethyl)phenyl)-N-(2-hydroxyethyl)-1H-pyrrolo[2,3-b]pyridine-2-carboxamide] | > 8.00 | > 8.30 | > 8.30 |
| CNC(=O)c1cc2cc(-c3ccc(CC(=O)Nc4cc(C(C)(C)C)on4)cc3)cnc2[nH]1 [Example 65, 5-(4-(2-((5-(tert-butyl)isoxazol-3-yl)amino)-2-oxoethyl)phenyl)-N-methyl-1H-pyrrolo[2,3-b]pyridine-2-carboxamide] | > 8.00 | > 8.30 | > 8.30 |
| CN(C)CCNC(=O)c1cc2cc(-c3ccc(CC(=O)Nc4cc(C(C)(C)C)on4)cc3)cnc2[nH]1 [Example 66, 5-(4-(2-((5-(tert-butyl)isoxazol-3-yl)amino)-2-oxoethyl)phenyl)-N-(2-(dimethylamino)ethyl)-1H-pyrrolo[2,3-b]pyridine-2-carboxamide] | > 8.00 | > 8.30 | > 8.30 |
| CN(C)CCCN(C)C(=O)c1cc2cc(-c3ccc(CC(=O)Nc4cc(C(C)(C)C)on4)cc3)cnc2[nH]1 [Example 67, 5-(4-(2-((5-(tert-butyl)isoxazol-3-yl)amino)-2-oxoethyl)phenyl)-N-(3-(dimethylamino)propyl)-N-methyl-1H-pyrrolo[2,3-b]pyridine-2-carboxamide] | > 8.00 | > 8.30 | > 8.30 |
| CC(C)(C)c1cc(NC(=O)Cc2ccc(-c3cnc4[nH]c(C(=O)NCCS(C)(=O)=O)cc4c3)cc2)no1 [Example 68, 5-(4-(2-((5-(tert-butyl)isoxazol-3-yl)amino)-2-oxoethyl)phenyl)-N-(2-(methylsulfonyl)ethyl)-1H-pyrrolo[2,3-b]pyridine-2-carboxamide] | > 8.00 | > 8.30 | > 8.30 |
| CN1CCC(NC(=O)c2cc3cc(-c4ccc(CC(=O)Nc5cc(C(C)(C)C)on5)cc4)cnc3[nH]2)CC1 [Example 69, 5-(4-(2-((5-(tert-butyl)isoxazol-3-yl)amino)-2-oxoethyl)phenyl)-N-(1-methylpiperidin-4-yl)-1H-pyrrolo[2,3-b]pyridine-2-carboxamide] | > 8.00 | > 8.30 | > 8.30 |
| O=C(Cc1ccc(-c2cnc3[nH]c(CO)cc3c2)cc1F)Nc1cc(C2(C(F)(F)F)CC2)on1 [Example 70, 2-(2-fluoro-4-(2-(hydroxymethyl)-1H-pyrrolo[2,3-b]pyridin-5-yl)phenyl)-N-(5-(1-(trifluoromethyl)cyclopropyl)isoxazol-3-yl)acetamide] | > 8.00 | > 8.30 | > 8.30 |
| COc1cc2ncc(-c3ccc(CC(=O)Nc4cc(C5(C(F)(F)F)CC5)no4)cc3)nc2cc1OC [Example 72, 2-(4-(6,7-dimethoxyquinoxalin-2-yl)phenyl)-N-(3-(1-(trifluoromethyl)cyclopropyl)isoxazol-5-yl)acetamide] | > 8.00 | – | – |
| COc1cc2ncc(-c3ccc(CC(=O)Nc4cc(C(C)(C)C)no4)cc3)nc2cc1OC [Example 73, N-(3-(tert-butyl)isoxazol-5-yl)-2-(4-(6,7-dimethoxyquinoxalin-2-yl)phenyl)acetamide] | > 8.00 | – | – |
| CC(=O)OCCOc1cc2ncc(-c3ccc(CC(=O)Nc4cc(C5(C(F)(F)F)CC5)on4)c(F)c3)nc2cc1OCCOC(C)=O [Example 74, ((2-(3-fluoro-4-(2-oxo-2-((5-(1-(trifluoromethyl)cyclopropyl)isoxazol-3-yl)amino)ethyl)phenyl)quinoxaline-6,7-diyl)bis(oxy))bis(ethane-2,1-diyl) diacetate] | > 8.00 | 7.70 to 8.30 | > 8.30 |
| O=C(Cc1ccc(-c2cnc3cc(OCCO)c(OCCO)cc3n2)cc1F)Nc1cc(C2(C(F)(F)F)CC2)on1 [Example 75, 2-(4-(6,7-bis(2-hydroxyethoxy)quinoxalin-2-yl)-2-fluorophenyl)-N-(5-(1-(trifluoromethyl)cyclopropyl)isoxazol-3-yl)acetamide] | > 8.00 | > 8.30 | > 8.30 |
| O=C(Cc1ccc(-c2cnc3cc4c(cc3n2)OCCO4)cc1F)Nc1cc(C2(C(F)(F)F)CC2)on1 [Example 76, 2-(4-(2,3-dihydro-[1,4]dioxino[2,3-g]quinoxalin-7-yl)-2-fluorophenyl)-N-(5-(1-(trifluoromethyl)cyclopropyl)isoxazol-3-yl)acetamide] | > 8.00 | 7.70 to 8.30 | > 8.30 |
| COc1cc2nc(-c3ccc(CC(=O)Nc4cc(C5(C(F)(F)F)CC5)on4)c(F)c3)cnc2cc1O [Example 78, 2-(2-fluoro-4-(6-hydroxy-7-methoxyquinoxalin-2-yl)phenyl)-N-(5-(1-(trifluoromethyl)cyclopropyl)isoxazol-3-yl)acetamide] | > 8.00 | > 8.30 | > 8.30 |
| COc1cc2nc(-c3ccc(CC(=O)Nc4cc(C5(C(F)(F)F)CC5)on4)c(F)c3)cnc2cc1OCCN1CCOCC1 [Example 79, 2-(2-fluoro-4-(7-methoxy-6-(2-morpholinoethoxy)quinoxalin-2-yl)phenyl)-N-(5-(1-(trifluoromethyl)cyclopropyl)isoxazol-3-yl)acetamide] | > 8.00 | > 8.30 | > 8.30 |
| COc1cc2ncc(-c3ccc(CC(=O)Nc4cc(C5(C(F)(F)F)CC5)on4)c(F)c3)nc2cc1OCCO [Example 80, 2-(2-fluoro-4-(7-(2-hydroxyethoxy)-6-methoxyquinoxalin-2-yl)phenyl)-N-(5-(1-(trifluoromethyl)cyclopropyl)isoxazol-3-yl)acetamide] | > 8.00 | > 8.30 | > 8.30 |
| COc1cc2nc(-c3ccc(CC(=O)Nc4cc(C5(C(F)(F)F)CC5)on4)c(F)c3)cnc2cc1OC1CNC1 [Example 89, 2-(4-(6-(azetidin-3-yloxy)-7-methoxyquinoxalin-2-yl)-2-fluorophenyl)-N-(5-(1-(trifluoromethyl)cyclopropyl)isoxazol-3-yl)acetamide] | > 8.00 | 7.70 to 8.30 | – |
